Test results from US20230146455A1, “TREATMENT OF INFLAMMATORY DISEASES WITH PEPTIDES AND PHARMACEUTICAL COMPOSITIONS” (Yuyu Pharma, Inc., priority 2020, published 2023).
Where “and” joins values, the source holds several entries; their conditions need not be identical. Equal values may be shown once. Where a SMILES comes first, the peptide text is derived from it. [ ]: non-standard residue; d: D form. Hyp = O=C(O)[C@@H]1C[C@@H](O)CN1

Legend:
IL-10 = experiment: Example 9 Luminex, LPS hPBMCs: IL-10; type: cell-based, human; conditions: for Concentration / conc/live cell (pg/10^5): IL-10
Experimental: (§1) Treatment Human PBMCs were pretreated with YY-101, YDE-011 and YDE-043 or reference compound; Xiidra® at various concentration (ranging from 1 nM to 100 uM) for 2 h before stimulation. An equal volume of 0.5% DMSO was used as a vehicle control. Then, the cells were treated with LPS at 5 ug/ml. The supernatants from treated cells were harvested at 24 h and placed in a 96 well for Luminex cytokine & chemokine profiling using a Luminex 200 multiplex assay (Luminex; R&D system, USA).
(§2) The main study arm with triplicate wells per group in a 24-well plate: • 1. Blank • 2. PBMC: 0.5% DMSO • 3. PBMC+LPS (5 ug/ml) • 4. PBMC+YY-101 100 uM • 5. PBMC+YY-101 10 uM • 6. PBMC+YY-101 1 uM • 7. PBMC+YY-101 0.1 uM • 8. PBMC+YY-101 0.01 uM • 9. PBMC+LPS (5 ug/ml)+Xiidra®100 uM • 10. PBMC+LPS (5 ug/ml)+Xiidra® 10 uM • 11. PBMC+LPS (5 ug/ml)+Xiidra® 1 uM • 12. PBMC+LPS (5 ug/ml)+Xiidra®0.1 uM • 13. PBMC+LPS (5 ug/ml)+Xiidra®0.01 uM • 14. PBMC+LPS (5 ug/ml)+Xiidra®0.001 uM • 15. PBMC+LPS (5 ug/ml)+YY-101 100 uM • 16. PBMC+LPS (5 ug/ml)+YY-101 10 uM • 17. PBMC+LPS (5 ug/ml)+YY-101 1 uM • 18. PBMC+LPS (5 ug/ml)+YY-101 0.1 uM • 19. PBMC+LPS (5 ug/ml)+YY-101 0.01 uM • 20. PBMC+LPS (5 ug/ml)+YY-101 0.001 uM • 21. PBMC+LPS (5 ug/ml)+YDE-011 100 uM • 22. PBMC+LPS (5 ug/ml)+YDE-011 10 uM • 23. PBMC+LPS (5 ug/ml)+YDE-011 1 uM • 24. PBMC+LPS (5 ug/ml)+YDE-011 0.1 uM • 25. PBMC+LPS (5 ug/ml)+YDE-011 0.01 uM • 26. PBMC+LPS (5 ug/ml)+YDE-011 0.001 uM • 27. PBMC+LPS (5 ug/ml)+YDE-043 100 uM • 28. PBMC+LPS (5 ug/ml)+YDE-043 10 uM • 29. PBMC+LPS (5 ug/ml)+YDE-043 1 uM • 30. PBMC+LPS (5 ug/ml)+YDE-043 0.1 uM • 31. PBMC+LPS (5 ug/ml)+YDE-043 0.01 uM • 32. PBMC+LPS (5 ug/ml)+YDE-043 0.001 uM
(§3) Multiplex assay was used to measure 30 cytokines and chemokines. The 1:2, 1:10 and 1:200 diluted cell supernatant and serial dilution of the standard were dispensed into a 96 well plate at 50 ul/well. Then, the pre-mixed cocktail of antibody-coated magnetic beads was dispensed at 50 ul/well and incubated at room temperature for 2 h in a horizontal orbital microplate shaker at 800±500 rpm. The beads were washed using a magnetic device to prevent loss. The biotin-antibody was dispensed in 50 ul of each well and incubated at room temperature for 1 h in a shaker at 800±500 rpm. After washing, streptavidin-PE was added at 50 ul/well and incubated at room temperature for 30 min in a shaker under the same conditions. Finally, after washing, wash buffer (100 ul/well) was added to the plate and incubated in a shaker for 2 min. The Luminex™ 200 setting were set according to the manufacturer's protocol. The data was calculated with a standard five-parameter logistic nonlinear regression analysis of the data (xPonent software 4.2, USA). The levels of cytokine/chemokine are normalized to the live cell counts (1×10^5 cells/mL) and presented as concentrations per mL (pg/mL or ng/mL).

GM-CSF = experiment: Example 9 Luminex, LPS hPBMCs: GM-CSF; type: cell-based, human; conditions: PBMC + LPS(5 ug/ml) + test article 0.001 uM; Mean
Experimental: as §1, §2, §3

[1] = PBMC + LPS(5 ug/ml) + test article 0.001 uM, Mean
[2] = PBMC + LPS(5 ug/ml) + test article 0.001 uM, single replicates
[3] = PBMC + LPS(5 ug/ml) + test article 0.01 uM, Mean
[4] = PBMC + LPS(5 ug/ml) + test article 0.01 uM, single replicates
[5] = PBMC + LPS(5 ug/ml) + test article 0.1 uM, Mean
[6] = PBMC + LPS(5 ug/ml) + test article 0.1 uM, single replicates
[7] = PBMC + LPS(5 ug/ml) + test article 1 uM, Mean
[8] = PBMC + LPS(5 ug/ml) + test article 1 uM, single replicates
[9] = PBMC + LPS(5 ug/ml) + test article 10 uM, Mean
[10] = PBMC + LPS(5 ug/ml) + test article 10 uM, single replicates
[11] = PBMC + LPS(5 ug/ml) + test article 100 uM, Mean
[12] = PBMC + LPS(5 ug/ml) + test article 100 uM, single replicates
[13] = PBMC + test article 0.01 uM, no LPS, Mean
[14] = PBMC + test article 0.01 uM, no LPS, single replicates
[15] = PBMC + test article 0.1 uM, no LPS, Mean
[16] = PBMC + test article 0.1 uM, no LPS, single replicates
[17] = PBMC + test article 10 uM, no LPS, Mean
[18] = PBMC + test article 10 uM, no LPS, single replicates
[19] = PBMC + test article 100 uM, no LPS, Mean
[20] = PBMC + test article 100 uM, no LPS, single replicates

With `CC(C)C[C@H](NC(=O)CNC(=O)[C@H](CC(=O)O)NC(=O)[C@H](CCC(N)=O)NC(=O)CNC(=O)[C@@H]1C[C@@H](O)CN1)C(=O)N[C@@H](C)C(=O)NCC(=O)N1CCC[C@H]1C(=O)N[C@@H](CCCCN)C(=O)O` [YY-101] (H-[Hyp]GQDGLAGPK-OH; N-terminus and C-terminus assumed) the “Concentration” value (IL-10; [1]) was 479.4 pg/mL, the “conc/live cell (pg/10^5)” value (IL-10; [1]) was 74.9 pg/10^5 and the “Concentration” value (IL-10; [2]) was 501.5 pg/mL and 488.8 pg/mL and 447.9 pg/mL. For the same compound, the “conc/live cell (pg/10^5)” value (IL-10; [2]) was 88.0 pg/10^5 and 68.9 pg/10^5 and 67.9 pg/10^5, the “Concentration” value (IL-10; [3]) was 499.9 pg/mL and the “conc/live cell (pg/10^5)” value (IL-10; [3]) was 81.1 pg/10^5. The “Concentration” value (IL-10; [4]) was 492.8 pg/mL and 499.5 pg/mL and 507.4 pg/mL, the “conc/live cell (pg/10^5)” value (IL-10; [4]) was 77.0 pg/10^5 and 83.2 pg/10^5 (2×) and the “Concentration” value (IL-10; [5]) was 445.6 pg/mL. For the same compound, the “conc/live cell (pg/10^5)” value (IL-10; [5]) was 76.6 pg/10^5, the “Concentration” value (IL-10; [6]) was 426.9 pg/mL and 459.4 pg/mL and 450.6 pg/mL and the “conc/live cell (pg/10^5)” value (IL-10; [6]) was 68.9 pg/10^5 and 88.3 pg/10^5 and 72.7 pg/10^5. The “Concentration” value (IL-10; [7]) was 519.9 pg/mL, the “conc/live cell (pg/10^5)” value (IL-10; [7]) was 80.1 pg/10^5 and the “Concentration” value (IL-10; [8]) was 556.7 pg/mL and 484.8 pg/mL and 518.0 pg/mL. For the same compound, the “conc/live cell (pg/10^5)” value (IL-10; [8]) was 88.4 pg/10^5 and 68.3 pg/10^5 and 83.6 pg/10^5, the “Concentration” value (IL-10; [9]) was 474.4 pg/mL and the “conc/live cell (pg/10^5)” value (IL-10; [9]) was 72.3 pg/10^5. For the same compound, the “Concentration” value (IL-10; [10]) was 464.8 pg/mL and 537.1 pg/mL and 421.4 pg/mL, the “conc/live cell (pg/10^5)” value (IL-10; [10]) was 77.5 pg/10^5 and 83.9 pg/10^5 and 55.4 pg/10^5 and the “Concentration” value (IL-10; [11]) was 172.4 pg/mL. For the same compound, the “conc/live cell (pg/10^5)” value (IL-10; [11]) was 29.9 pg/10^5, the “Concentration” value (IL-10; [12]) was 173.5 pg/mL and 168.6 pg/mL and 175.1 pg/mL and the “conc/live cell (pg/10^5)” value (IL-10; [12]) was 27.5 pg/10^5 and 27.2 pg/10^5 and 35.0 pg/10^5. For the same compound, the “Concentration” value (IL-10; [13]) was 4.3 pg/mL, the “conc/live cell (pg/10^5)” value (IL-10; [13]) was 0.5 pg/10^5 and the “Concentration” value (IL-10; [14]) was 4.3 pg/mL. The “conc/live cell (pg/10^5)” value (IL-10; [14]) was 0.0 pg/10^5 and 0.9 pg/10^5, the “Concentration” value (IL-10; [15]) was 4.3 pg/mL and the “conc/live cell (pg/10^5)” value (IL-10; [15]) was 0.4 pg/10^5. For the same compound, the “Concentration” value (IL-10; [16]) was 4.3 pg/mL, the “conc/live cell (pg/10^5)” value (IL-10; [16]) was 0.0 pg/10^5 and 0.7 pg/10^5 and the “conc/live cell (pg/10^5)” value (IL-10; PBMC + test article 1 uM, no LPS, Mean) was 0.0 pg/10^5. The “conc/live cell (pg/10^5)” value (IL-10; PBMC + test article 1 uM, no LPS, single replicates) was 0.0 pg/10^5, the “Concentration” value (IL-10; [17]) was 12.6 pg/mL and the “conc/live cell (pg/10^5)” value (IL-10; [17]) was 2.0 pg/10^5. For the same compound, the “Concentration” value (IL-10; [18]) was 23.2 pg/mL and 2.0 pg/mL, the “conc/live cell (pg/10^5)” value (IL-10; [18]) was 3.6 pg/10^5 and 0.3 pg/10^5 and the “Concentration” value (IL-10; [19]) was 8.2 pg/mL. The “conc/live cell (pg/10^5)” value (IL-10; [19]) was 0.6 pg/10^5, the “Concentration” value (IL-10; [20]) was 8.2 pg/mL and the “conc/live cell (pg/10^5)” value (IL-10; [20]) was 1.3 pg/10^5 and 0.0 pg/10^5. The “LPS-induced IL-10 (in words)” value (IL-10; LPS 5 ug/mL 24 hrs, 100 uM to 1 nM) was “significantly reduced” and the “GM-CSF Concentration” value (GM-CSF) was 159.8 pg/mL.
